Experimental data published in patent publication US10385057B2, “Pyrazole compounds and methods of making and using same” (Lundbeck La Jolla Research Center, Inc., priority 2015, dated 2019).

How the values were obtained:
Type in all cases: biochemical
[1] = biological target: T1, MAGL (Homo sapiens, UniProt Q99685); test: In vitro competitive activity-based protein profiling, human MAGL
T1 construct: human prefrontal cortex or cell membrane fractions for human assays; from tissue
T1 sequence (Q99685 1-303): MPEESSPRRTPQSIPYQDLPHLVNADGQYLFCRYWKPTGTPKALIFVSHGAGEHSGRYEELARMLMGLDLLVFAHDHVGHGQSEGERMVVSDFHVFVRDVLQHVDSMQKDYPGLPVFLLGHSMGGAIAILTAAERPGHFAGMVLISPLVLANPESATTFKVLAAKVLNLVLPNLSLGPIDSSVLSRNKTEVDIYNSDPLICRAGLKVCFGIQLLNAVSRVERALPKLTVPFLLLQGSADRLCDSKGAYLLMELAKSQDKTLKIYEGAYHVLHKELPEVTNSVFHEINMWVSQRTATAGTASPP
Protocol: (§1) In Vitro Competitive Activity-Based Protein Profiling.
(§2) Proteomes (mouse brain membrane fraction or cell lysates for mouse assays; human prefrontal cortex or cell membrane fractions for human assays) (50 μL, 1.0 mg/mL total protein concentration) were preincubated with varying concentrations of inhibitors at 37° C. After 30 min, FP-Rh or HT-01 (1.0 μL, 50 μM in DMSO) was added and the mixture was incubated for another 30 min at 37° C. Reactions were quenched with SDS loading buffer (15 μL—4×) and run on SDS-PAGE. Following gel imaging, serine hydrolase activity was determined by measuring fluorescent intensity of gel bands corresponding to MAGL and FAAH using ImageJ 1.43u software.

[2] = biological target: T2, FAAH (Homo sapiens, UniProt O00519); test: In vitro competitive activity-based protein profiling, human FAAH
T2 construct: human prefrontal cortex or cell membrane fractions for human assays; from tissue
T2 sequence (O00519 1-579): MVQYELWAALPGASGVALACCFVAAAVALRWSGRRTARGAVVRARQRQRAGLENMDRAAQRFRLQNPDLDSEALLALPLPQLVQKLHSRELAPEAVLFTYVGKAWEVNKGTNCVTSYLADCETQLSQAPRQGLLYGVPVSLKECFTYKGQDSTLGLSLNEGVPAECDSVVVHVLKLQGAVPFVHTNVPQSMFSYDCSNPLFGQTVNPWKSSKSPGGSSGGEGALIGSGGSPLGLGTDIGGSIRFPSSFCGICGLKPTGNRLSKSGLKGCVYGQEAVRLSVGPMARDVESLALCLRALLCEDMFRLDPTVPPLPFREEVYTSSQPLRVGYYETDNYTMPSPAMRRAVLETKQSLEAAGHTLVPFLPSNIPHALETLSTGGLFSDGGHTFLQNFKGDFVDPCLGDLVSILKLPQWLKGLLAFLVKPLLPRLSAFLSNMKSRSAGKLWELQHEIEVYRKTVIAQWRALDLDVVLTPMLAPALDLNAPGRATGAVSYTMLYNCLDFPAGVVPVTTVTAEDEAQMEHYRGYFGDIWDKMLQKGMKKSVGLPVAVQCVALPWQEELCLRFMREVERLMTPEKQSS
Protocol: as §1, §2

[3] = biological target: T3, MAGL (Mus musculus, UniProt O35678); test: In vitro competitive activity-based protein profiling, mouse MAGL; settings: 1 μM, read-out: MAGL % inh. 1 μM (mouse)
T3 construct: mouse brain membrane fraction or cell lysates for mouse assays; from tissue
T3 sequence (O35678 1-303): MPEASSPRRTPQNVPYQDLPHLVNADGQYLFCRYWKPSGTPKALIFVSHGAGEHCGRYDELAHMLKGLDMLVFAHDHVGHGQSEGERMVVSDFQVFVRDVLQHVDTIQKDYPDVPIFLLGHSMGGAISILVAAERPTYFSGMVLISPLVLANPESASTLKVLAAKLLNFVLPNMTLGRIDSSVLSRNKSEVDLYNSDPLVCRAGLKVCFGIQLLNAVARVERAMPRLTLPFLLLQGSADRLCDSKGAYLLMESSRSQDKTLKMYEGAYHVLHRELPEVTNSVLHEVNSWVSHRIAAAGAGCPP
Summary of the method: (§3)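 Mouse brain membranes or cell lysates (mouse) and human prefrontal cortex or cell membrane fractions (human), 1.0 mg/mL protein, preincubated with inhibitor 30 min at 37 °C, then FP-Rh or HT-01 probe 30 min at 37 °C. SDS-PAGE; MAGL and FAAH activity from in-gel fluorescence band intensity.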

[4] = biological target: T4, FAAH (Mus musculus, UniProt O08914); test: In vitro competitive activity-based protein profiling, mouse FAAH; settings: 1 μM, read-out: FAAH % inh. 1 μM (mouse)
T4 construct: mouse brain membrane fraction or cell lysates for mouse assays; from tissue
T4 sequence (O08914 1-579): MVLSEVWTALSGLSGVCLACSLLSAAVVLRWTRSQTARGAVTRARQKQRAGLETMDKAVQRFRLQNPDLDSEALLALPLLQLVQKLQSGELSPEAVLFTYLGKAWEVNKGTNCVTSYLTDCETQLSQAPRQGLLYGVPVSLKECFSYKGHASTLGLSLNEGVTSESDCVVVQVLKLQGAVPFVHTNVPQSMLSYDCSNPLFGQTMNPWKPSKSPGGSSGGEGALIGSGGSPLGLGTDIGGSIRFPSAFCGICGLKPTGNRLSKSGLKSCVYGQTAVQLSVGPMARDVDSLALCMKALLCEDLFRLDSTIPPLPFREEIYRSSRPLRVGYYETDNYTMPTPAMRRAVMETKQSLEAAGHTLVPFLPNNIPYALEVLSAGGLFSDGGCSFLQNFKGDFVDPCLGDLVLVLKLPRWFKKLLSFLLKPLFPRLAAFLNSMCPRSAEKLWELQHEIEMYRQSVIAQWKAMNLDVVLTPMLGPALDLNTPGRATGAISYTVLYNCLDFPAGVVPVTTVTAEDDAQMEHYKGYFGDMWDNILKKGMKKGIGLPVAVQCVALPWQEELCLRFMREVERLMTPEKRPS
Summary of the method: as §3

inhibition at 1 µM ([1]; 1 μM, read-out: MAGL % inh. 1 μM (human)): 0 to 25%
inhibition at 10 µM ([1]; 10 μM, read-out: MAGL % inh. 10 μM (human)): ≥ 75%
inhibition at 1 µM ([2]; 1 μM, read-out: FAAH % inh. 1 μM (human)): 0 to 25%
inhibition at 10 µM ([2]; 10 μM, read-out: FAAH % inh. 10 μM (human)): ≥ 75%
inhibition at 1 µM [3]: 0 to 25%
inhibition at 1 µM [4]: 0 to 25%
SMILES: CN(Cc1ccc(N2CCCC2)cc1C(F)(F)F)[C@@H]1C[C@@H]2CN(C(=O)n3cc(C(N)=O)cn3)C[C@@H]2C1 [Example 220, 1-(cis-5-(methyl(4-(pyrrolidin-1-yl)-2-(trifluoromethyl)benzyl)amino)octahydrocyclopenta[c]pyrrole-2-carbonyl)-1H-pyrazole-4-carboxamide]
